{
  "source": "paper PMC10041525",
  "about": "“New Dual Inhibitors of Bacterial Topoisomerases with Broad-Spectrum Antibacterial Activity and In Vivo Efficacy against Vancomycin-Intermediate Staphylococcus aureus” (Journal of Medicinal Chemistry, 2023)",
  "system": "100 A. baumannii strains (50 MDR, 50 non-MDR)",
  "test": "MIC broth microdilution at IHMA Europe, panel of 100 strains",
  "assay_type": "cell-based",
  "data": [
    {"substance": "piperacillin/tazobactam [Piperacillin Tazobactam]", "values": [
      {"measurement": "MIC", "setting": "A. baumannii IHMA 2193485, Venezuela 2020, Non-MDR", "result": "≤0.25", "unit": "µg/mL"},
      {"measurement": "MIC", "setting": "A. baumannii IHMA 2193607, Venezuela 2020, MDR", "result": ">128", "unit": "µg/mL"},
      {"measurement": "MIC", "setting": "A. baumannii IHMA 2195460, Italy 2020, MDR", "result": ">128", "unit": "µg/mL"},
      {"measurement": "MIC", "setting": "A. baumannii IHMA 2196914, South Africa 2020, MDR", "result": ">128", "unit": "µg/mL"},
      {"measurement": "MIC", "setting": "A. baumannii IHMA 2196959, South Africa 2020, MDR", "result": ">128", "unit": "µg/mL"},
      {"measurement": "MIC", "setting": "A. baumannii IHMA 2203763, Spain 2020, MDR", "result": ">128", "unit": "µg/mL"},
      {"measurement": "MIC", "setting": "A. baumannii IHMA 2205144, Korea, South 2020, MDR", "result": ">128", "unit": "µg/mL"},
      {"measurement": "MIC", "setting": "A. baumannii IHMA 2206459, Taiwan 2020, MDR", "result": ">128", "unit": "µg/mL"},
      {"measurement": "MIC", "setting": "A. baumannii IHMA 2206507, Taiwan 2020, Non-MDR", "result": "≤0.25", "unit": "µg/mL"},
      {"measurement": "MIC", "setting": "A. baumannii IHMA 2212575, Hungary 2020, Non-MDR", "result": 4, "unit": "µg/mL"},
      {"measurement": "MIC", "setting": "A. baumannii IHMA 2215307, Hong Kong 2020, Non-MDR", "result": 1, "unit": "µg/mL"},
      {"measurement": "MIC", "setting": "A. baumannii IHMA 2216586, Taiwan 2020, MDR", "result": ">128", "unit": "µg/mL"},
      {"measurement": "MIC", "setting": "A. baumannii IHMA 2223200, Colombia 2020, Non-MDR", "result": "≤0.25", "unit": "µg/mL"},
      {"measurement": "MIC", "setting": "A. baumannii IHMA 2224017, Panama 2020, MDR", "result": ">128", "unit": "µg/mL"},
      {"measurement": "MIC", "setting": "A. baumannii IHMA 2224303, Panama 2020, Non-MDR", "result": 16, "unit": "µg/mL"},
      {"measurement": "MIC", "setting": "A. baumannii IHMA 2231797, Greece 2020, MDR", "result": ">128", "unit": "µg/mL"},
      {"measurement": "MIC", "setting": "A. baumannii IHMA 2233099, Guatemala 2020, MDR", "result": ">128", "unit": "µg/mL"},
      {"measurement": "MIC", "setting": "A. baumannii IHMA 2233430, Kazakhstan 2020, MDR", "result": ">128", "unit": "µg/mL"},
      {"measurement": "MIC", "setting": "A. baumannii IHMA 2233548, Kazakhstan 2020, Non-MDR", "result": "≤0.25", "unit": "µg/mL"},
      {"measurement": "MIC", "setting": "A. baumannii IHMA 2238964, Thailand 2020, MDR", "result": ">128", "unit": "µg/mL"},
      {"measurement": "MIC", "setting": "A. baumannii IHMA 2239052, Thailand 2020, Non-MDR", "result": "≤0.25", "unit": "µg/mL"},
      {"measurement": "MIC", "setting": "A. baumannii IHMA 2261047, Belgium 2020, MDR", "result": ">128", "unit": "µg/mL"},
      {"measurement": "MIC", "setting": "A. baumannii IHMA 2261633, Canada 2020, Non-MDR", "result": "≤0.25", "unit": "µg/mL"},
      {"measurement": "MIC", "setting": "A. baumannii IHMA 2274234, South Africa 2020, MDR", "result": ">128", "unit": "µg/mL"},
      {"measurement": "MIC", "setting": "A. baumannii IHMA 2274364, South Africa 2020, MDR", "result": ">128", "unit": "µg/mL"},
      {"measurement": "MIC", "setting": "A. baumannii IHMA 2275237, Chile 2020, Non-MDR", "result": "≤0.25", "unit": "µg/mL"},
      {"measurement": "MIC", "setting": "A. baumannii IHMA 2275751, Jordan 2020, MDR", "result": ">128", "unit": "µg/mL"},
      {"measurement": "MIC", "setting": "A. baumannii IHMA 2316205, United States 2020, MDR", "result": ">128", "unit": "µg/mL"},
      {"measurement": "MAX (maximum MIC; all strains inhibited)", "setting": "MDR n = 50", "result": ">128", "unit": "µg/mL"},
      {"measurement": "MIC50", "setting": "MDR n = 50", "result": ">128", "unit": "µg/mL"},
      {"measurement": "MIC90", "setting": "MDR n = 50", "result": ">128", "unit": "µg/mL"},
      {"measurement": "MIN (minimum MIC)", "setting": "MDR n = 50", "result": ">128", "unit": "µg/mL"},
      {"measurement": "Percentage I", "setting": "MDR n = 50", "result": 0, "unit": "%"},
      {"measurement": "Percentage R", "setting": "MDR n = 50", "result": 100, "unit": "%"},
      {"measurement": "Percentage S", "setting": "MDR n = 50", "result": 0, "unit": "%"},
      {"measurement": "Cumulative % at MIC", "setting": "MDR n=50, MIC >128 µg/mL", "result": 100, "unit": "%"},
      {"measurement": "No. of isolates at MIC", "setting": "MDR n=50, MIC >128 µg/mL", "result": 50},
      {"measurement": "MAX (maximum MIC; all strains inhibited)", "setting": "all isolates n = 100", "result": ">128", "unit": "µg/mL"},
      {"measurement": "MIC50", "setting": "all isolates n = 100", "result": 16, "unit": "µg/mL"},
      {"measurement": "MIC90", "setting": "all isolates n = 100", "result": ">128", "unit": "µg/mL"},
      {"measurement": "MIN (minimum MIC)", "setting": "all isolates n = 100", "result": "≤0.25", "unit": "µg/mL"},
      {"measurement": "Percentage I", "setting": "all n = 100, CLSI breakpoints", "result": 0, "unit": "%"},
      {"measurement": "Percentage R", "setting": "all n = 100, CLSI breakpoints", "result": 50, "unit": "%"},
      {"measurement": "Percentage S", "setting": "all n = 100, CLSI breakpoints", "result": 50, "unit": "%"},
      {"measurement": "Cumulative % at MIC", "setting": "all n=100, MIC 0.5 µg/mL", "result": 36, "unit": "%"},
      {"measurement": "No. of isolates at MIC", "setting": "all n=100, MIC 0.5 µg/mL", "result": 1},
      {"measurement": "Cumulative % at MIC", "setting": "all n=100, MIC 1 µg/mL", "result": 37, "unit": "%"},
      {"measurement": "No. of isolates at MIC", "setting": "all n=100, MIC 1 µg/mL", "result": 1},
      {"measurement": "Cumulative % at MIC", "setting": "all n=100, MIC 2 µg/mL", "result": 39, "unit": "%"},
      {"measurement": "No. of isolates at MIC", "setting": "all n=100, MIC 2 µg/mL", "result": 2},
      {"measurement": "Cumulative % at MIC", "setting": "all n=100, MIC […] µg/mL", "result": 50, "unit": "%"},
      {"measurement": "No. of isolates at MIC", "setting": "all n=100, MIC […] µg/mL", "result": 3},
      {"measurement": "Cumulative % at MIC", "setting": "all n=100, MIC >128 µg/mL", "result": 100, "unit": "%"},
      {"measurement": "No. of isolates at MIC", "setting": "all n=100, MIC >128 µg/mL", "result": 50},
      {"measurement": "Cumulative % at MIC", "setting": "all n=100, MIC ≤[…]", "result": 35, "unit": "%"},
      {"measurement": "No. of isolates at MIC", "setting": "all n=100, MIC ≤[…]", "result": 35},
      {"measurement": "MAX (maximum MIC)", "setting": "non-MDR n = 50", "result": 16, "unit": "µg/mL"},
      {"measurement": "MIC50", "setting": "non-MDR n = 50", "result": "≤0.25", "unit": "µg/mL"},
      {"measurement": "MIC90", "setting": "non-MDR n = 50", "result": 4, "unit": "µg/mL"},
      {"measurement": "MIN (minimum MIC)", "setting": "non-MDR n = 50", "result": "≤0.25", "unit": "µg/mL"},
      {"measurement": "Percentage I", "setting": "non-MDR n = 50", "result": 0, "unit": "%"},
      {"measurement": "Percentage R", "setting": "non-MDR n = 50", "result": 0, "unit": "%"},
      {"measurement": "Percentage S", "setting": "non-MDR n = 50", "result": 100, "unit": "%"},
      {"measurement": "Cumulative % at MIC", "setting": "non-MDR n=50, MIC 0.5 µg/mL", "result": 72, "unit": "%"},
      {"measurement": "No. of isolates at MIC", "setting": "non-MDR n=50, MIC 0.5 µg/mL", "result": 1},
      {"measurement": "Cumulative % at MIC", "setting": "non-MDR n=50, MIC 1 µg/mL", "result": 74, "unit": "%"},
      {"measurement": "No. of isolates at MIC", "setting": "non-MDR n=50, MIC 1 µg/mL", "result": 1},
      {"measurement": "Cumulative % at MIC", "setting": "non-MDR n=50, MIC 2 µg/mL", "result": 78, "unit": "%"},
      {"measurement": "No. of isolates at MIC", "setting": "non-MDR n=50, MIC 2 µg/mL", "result": 2},
      {"measurement": "Cumulative % at MIC", "setting": "non-MDR n=50, MIC […] µg/mL", "result": 100, "unit": "%"},
      {"measurement": "No. of isolates at MIC", "setting": "non-MDR n=50, MIC […] µg/mL", "result": 3},
      {"measurement": "Cumulative % at MIC", "setting": "non-MDR n=50, MIC ≤[…]", "result": 70, "unit": "%"},
      {"measurement": "No. of isolates at MIC", "setting": "non-MDR n=50, MIC ≤[…]", "result": 35}
    ]}
  ]
}
